Experimental findings from patent US6812231B2, “Benzamidine derivative” (Ajinomoto Co., Inc., priority 1998, dated 2004) are described below.

Assay [1] addresses T1, activated human blood coagulation factor X (Homo sapiens, UniProt P00742).
T1 construct: purchased Enzyme Research Co
The assay can be described thus: Determination of activity of inhibiting the activated blood-coagulation factor X (chromogenic substrate, initial rate). It counts as biochemical. The settings on record: tris hydrochloride buffer pH 8.4, room temperature, absorbance 405 nm; for IC50: read-out: Activity of inhibiting activated blood coagulation factor X (pIC50) (converted). Here is the method:
Determination of Activity of Inhibiting the Activated Blood-coagulation Factor X
130 μl of 100 mM tris hydrochloride buffer adjusted to pH 8.4 was added to 10 μl of an aqueous solution of a compound to be tested. Then 10 μl of a 0.5 unit/ml solution of activated human blood coagulation factor X (a product of Enzyme Research Co.) in tris hydrochloride of pH 8.4 was added to the resultant mixture. After the incubation at room temperature for 10 minutes, 50 μl of a solution of N-benzoyl-L-isoleucyl-L-glutamyl-glycyl-L-arginyl-P-nitroanilide hydrochloride (a product of Peptide Institute, Inc.) adjusted to 0.8 mM with tris hydrochloride (pH 8.4) was added thereto. The absorbance was determined and then the initial reaction rate was determined. A control was prepared in the same manner as that described above except that the solution of the compound to be tested was replaced with 10 μl of tris hydrochloride buffer adjusted to pH 8.4. The absorbance was determined with MICROPLATE READER Model 3550-UV (a product of BIO RAD) at a wave length of 405 nm at intervals of 15 seconds for 16 minutes.

The next assay addresses T2, human thrombin (Homo sapiens, UniProt P00734).
T2 construct: solution of human thrombin (a product of SIGMA Co.); purchased SIGMA Co
Nature of the assay: Determination of thrombin-inhibiting activity (chromogenic substrate S-2238, initial rate). It counts as biochemical. The settings on record: tris hydrochloride buffer pH 8.4, room temperature, absorbance 405 nm; for IC50: read-out: Thrombin-inhibiting activity (pIC50) (converted). The protocol:
Determination of Thrombin-inhibiting Activity
130 μl of 100 mM tris hydrochloride buffer adjusted to pH 8.4 was added to 10 μl of an aqueous solution of a test compound. Then 10 μl of a solution of human thrombin (a product of SIGMA Co.) adjusted to 2 units/ml with tris hydrochloride buffer of pH 8.4 was added to the resultant mixture. After the incubation at room temperature for 10 minutes, 50 μl of a solution of D-phenylalanyl-L-pipecolyl-L-arginyl-P-nitroanilide dihydrochloride (S-2238; a product of Daiichi Kagaku Yakuhin Co.) adjusted to 0.4 mM with tris hydrochloride buffer of pH 8.4 was added thereto. The absorbance was determined and then the initial reaction rate was determined. A control was prepared in the same manner as that described above except that the solution of the compound to be tested was replaced with 10 μl of tris hydrochloride buffer adjusted to pH 8.4. The absorbance was determined with MICROPLATE READER Model 3550-UV (a product of […]) at a wave length of 405 nm at intervals of 15 seconds for 16 minutes.

T1 sequence (P00742 235-488 limits assumed): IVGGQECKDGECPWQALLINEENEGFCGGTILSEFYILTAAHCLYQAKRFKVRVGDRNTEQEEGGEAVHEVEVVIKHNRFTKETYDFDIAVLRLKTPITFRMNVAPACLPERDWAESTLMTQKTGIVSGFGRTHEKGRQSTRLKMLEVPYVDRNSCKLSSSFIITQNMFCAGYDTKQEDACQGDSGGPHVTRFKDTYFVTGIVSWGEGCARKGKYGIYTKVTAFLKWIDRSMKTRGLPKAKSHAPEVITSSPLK
T1 sequence (P00742 41-179 partner limits assumed): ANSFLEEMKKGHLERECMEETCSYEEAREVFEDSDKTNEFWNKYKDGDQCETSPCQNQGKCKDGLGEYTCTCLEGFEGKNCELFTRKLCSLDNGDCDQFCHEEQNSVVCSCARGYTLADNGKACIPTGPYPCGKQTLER

Consider “3-[4-amidino-2-(2-((1-(1-methylpyridinium-4-yl)piperidine-4-carbonyl)amino)ethoxy)phenyl]-2-oxopropionic acid bistrifluoroacetate [Compd. of Ex. 52]”, for which the “Activity of inhibiting activated blood coagulation factor X (pIC50)” value in assay [1] is listed as 7.1. For the same compound, at human thrombin, the “Thrombin-inhibiting activity (pIC50)” value came out at 4.2.
Turning to “3-[4-amidino-(2R)-2-((1-(pyridine-4-yl)piperidine-4-carbonyl)pyrrolidine-2-ylmethoxy)phenyl]propionic acid bistrifluoroacetate [Compd. of Ex. 26]”, the “Activity of inhibiting activated blood coagulation factor X (pIC50)” value in assay [1] is recorded as 7.8. The “Thrombin-inhibiting activity (pIC50)” value at human thrombin was less than 4.0.
On to `CC(=N)N1CCC(Oc2ccc(C(=O)NCCOc3cc(C(=N)N)ccc3C=CC(=O)O)cc2)CC1.O=C(O)C(F)(F)F.O=C(O)C(F)(F)F` [Compd. of Ex. 2, 3-[4-amidino-2-(2-(4-(1-(1-acetimidoyl)-4-piperidyloxy)benzoylamino)ethoxy)phenyl]acrylic acid bistrifluoroacetate], for which the “Thrombin-inhibiting activity (pIC50)” value on human thrombin was less than 3.0.
Consider `CC(=N)N1CCC(Oc2ccc(C(=O)NCCOc3cc(C(=N)N)ccc3CCC(=O)O)cc2)CC1.O=C(O)C(F)(F)F.O=C(O)C(F)(F)F` [Compd. of Ex. 4, 3-[4-amidino-2-(2-(4-(1-(1-acetimidoyl)-4-piperidyloxy)benzoylamino)ethoxy)phenyl]propionic acid bistrifluoroacetate], for which the “Activity of inhibiting activated blood coagulation factor X (pIC50)” value in assay [1] came to 7.5. On human thrombin, the “Thrombin-inhibiting activity (pIC50)” value is given as less than 3.0.
Consider `CCOC(=O)CCc1ccc(C(=N)N)cc1OCCNC(=O)C1CCN(c2ccncc2)CC1` [Compd. of Ex. 5, ethyl 3-[4-amidino-2-(2-((1-(pyridine-4-yl)piperidine-4-carbonyl)amino)ethoxy)phenyl]propionate bistrifluoroacetate], for which the IC50 in assay [1] was 0.0631 µM; on human thrombin, 6.31 µM.
For `N=C(N)c1ccc(CCC(=O)O)c(OCCNC(=O)C2CCN(c3ccncc3)CC2)c1.O=C(O)C(F)(F)F.O=C(O)C(F)(F)F` [Compd. of Ex. 6], the “Activity of inhibiting activated blood coagulation factor X (pIC50)” value in assay [1] turned out to be 7.4. The “Thrombin-inhibiting activity (pIC50)” value on human thrombin was less than 3.0.
Take `CC(=N)N1CCC(Oc2ccc(C(=O)N[C@@H](COc3cc(C(=N)N)ccc3CCC(=O)O)CC(=O)O)cc2)CC1.O=C(O)C(F)(F)F.O=C(O)C(F)(F)F` [Compd. of Ex. 10, (3R)-4-[5-amidino-2-(2-carboxyethyl)phenoxy]-3-[4-(1-(1-acetimidoyl)-4-piperidyloxy)benzoylamino]butanoic acid bistrifluoroacetate]: the “Activity of inhibiting activated blood coagulation factor X (pIC50)” value in assay [1] is 7.4. For the same compound, the “Thrombin-inhibiting activity (pIC50)” value at human thrombin is recorded as less than 3.0.
As to `N=C(N)c1ccc(CCC(=O)O)c(OC[C@@H](CC(=O)O)NC(=O)C2CCN(c3ccncc3)CC2)c1` [Compd. of Ex. 13, (3R)-4-[5-amidino-2-(2-carboxyethyl)phenoxy]-3-[(1-(pyridine-4-yl)piperidine-4-carbonyl)amino]butanoic acid bistrifluoroacetate], the figures for the IC50 (in assay [1]; at human thrombin) were 0.0251 µM and greater than 794 µM, respectively.
The matching figures for `CC(=N)N1CCC(Oc2ccc(C(=O)NCCOc3cc(C(=N)N)ccc3O)cc2)CC1` [Compd. of Ex. 14, N-[2-(5-amidino-2-hydroxyphenoxy)ethyl]-4-(1-acetimidoyl-4-piperidyloxy)benzamide bistrifluoroacetate]: 0.0158 µM and greater than 100 µM.
For the compound `CC(=N)N1CCC(Oc2ccc(C(=O)N[C@@H](COc3cc(C(=N)N)ccc3O)CC(=O)O)cc2)CC1` [Compd. of Ex. 28, (3R)-4-(5-amidino-2-hydroxyphenoxy)-3-[4-(1-acetimidoyl-4-piperidyloxy)benzoylamino]butanoic acid bistrifluoroacetate], the IC50 was 0.0158 µM in assay [1] and greater than 100 µM at human thrombin.
Regarding `N=C(N)c1ccc(O)c(OC[C@@H](CC(=O)O)NC(=O)C2CCN(c3ccncc3)CC2)c1` [Compd. of Ex. 29, (3R)-4-(5-amidino-2-hydroxyphenoxy)-3-[(1-(pyridine-4-yl)piperidine-4-carbonyl)amino]butanoic acid bistrifluoroacetate], the IC50 in assay [1] is 0.0126 µM; at human thrombin it was greater than 100 µM.
For `N=C(N)c1ccc(CO)c(OCCNC(=O)C2CCN(c3ccncc3)CC2)c1.O=C(O)C(F)(F)F.O=C(O)C(F)(F)F` [Compd. of Ex. 37, N-[2-(5-amidino-2-hydroxymethylphenoxy)ethyl]-1-(1-(1-pyridine-4-yl)piperidine)carboxamide bistrifluoroacetate], in assay [1], the “Activity of inhibiting activated blood coagulation factor X (pIC50)” value came to 7.3. The “Thrombin-inhibiting activity (pIC50)” value on human thrombin is listed as less than 4.0.
Regarding `COC(=O)c1ccc(C(=N)N)cc1OCCNC(=O)c1ccc(OC2CCN(C(C)=N)CC2)cc1.O=C(O)C(F)(F)F.O=C(O)C(F)(F)F` [Compd. of Ex. 38, methyl 4-amidino-2-[2-(4-[1-(1-acetimidoyl)-4-piperidyloxy]benzoylamino)ethoxy]benzoate bistrifluoroacetate], on human thrombin, the “Thrombin-inhibiting activity (pIC50)” value is listed as 3.3.
As to `N=C(N)c1ccc(CCCO)c(OCCNC(=O)C2CCN(c3ccncc3)CC2)c1.O=C(O)C(F)(F)F.O=C(O)C(F)(F)F` [Compd. of Ex. 43, N-[2-(5-amidino-2-hydroxypropylphenoxy)ethyl]-1-(1-(1-pyridine-4-yl)piperidine)carboxamide bistrifluoroacetate], the “Activity of inhibiting activated blood coagulation factor X (pIC50)” value in assay [1] was 7.8. The “Thrombin-inhibiting activity (pIC50)” value on human thrombin is reported as less than 4.0.
`CN1CCN=C1c1ccc(C(=O)NCCOc2cc(C(=N)N)ccc2CC(=O)C(=O)O)cc1.O=C(O)C(F)(F)F.O=C(O)C(F)(F)F` [Compd. of Ex. 51]: in assay [1], the “Activity of inhibiting activated blood coagulation factor X (pIC50)” value worked out at 8.1. In addition, the “Thrombin-inhibiting activity (pIC50)” value on human thrombin is on record as 4.3.
Take “(3R)-3-[4-amidino-2-(3-ethoxycarbonyl-2-(4-(1-(1-acetimidoyl)-4-piperidyloxy)benzoylamino)propoxy)phenyl]acrylic acid bistrifluoroacetate [Compd. of Ex. 8]”: the “Thrombin-inhibiting activity (pIC50)” value at human thrombin is on record as less than 3.0.
As for “N-[2-(5-amidino-2-hydroxyphenoxy)ethyl]-1-(4-pyridyl)-4-piperidine-4-carboxamide bistrifluoroacetate [Compd. of Ex. 15]”, the “Activity of inhibiting activated blood coagulation factor X (pIC50)” value in assay [1] stood at 8. Also, at human thrombin, the “Thrombin-inhibiting activity (pIC50)” value is listed as less than 4.0.
With “ethyl (3R)-4-[5-amidino-2-(2-ethoxycarbonylethyl)phenoxy]-3-[4-(1-(1-acetimidoyl)-4-piperidyloxy)benzoylamino]butanoate bistrifluoroacetate [Compd. of Ex. 9]”, the “Thrombin-inhibiting activity (pIC50)” value at human thrombin came out at 5.5.
